Assay results taken from article PMC12588090, “C6-Alkoxy substituted penicillins are potent non-covalently binding inhibitors of the SARS-CoV-2 main protease” (RSC Medicinal Chemistry, 2025).
Values joined by “and” are separate entries in the source; they are usually repeats but may differ in a detail not shown here. Equal entries are not always repeated. “Also recorded” adds a separate entry of the source. Where two headings read alike, the source gives them in different places.

How the values were obtained:
[1] = biological target: T1, SARS-CoV-2 M^pro (Severe acute respiratory syndrome coronavirus 2, UniProt P0DTD1); test: SPE-MS M^pro inhibition assay; type: biochemical; conditions: for increase in M^pro inhibition potency compared to (S)-sulfoxide 22: ratio of IC50 values
[2] = biological target: T1, SARS-CoV-2 M^pro; conditions: read-out: IC50 (reported) (converted), cited from earlier work
[3] = biological target: T1, SARS-CoV-2 M^pro; type: binding; conditions: for mass shift of concentration-dependent M^pro adduct / covalent reaction with / modification of M^pro / species with mass shifts corresponding to potential acyl–enzyme complexes: >15 h incubation; for mass shift of concentration-dependent M^pro adduct: intensity rises with penicillin derivative : M^pro ratio; for covalent reaction with / modification of M^pro / species with mass shifts corresponding to potential acyl–enzyme complexes: β-lactam 15 μM; for covalent reaction with / modification of M^pro: M^pro 3.0 μM (5 : 1), denaturing MS, 20 mM HEPES pH 7.5; for species with mass shifts corresponding to potential acyl–enzyme complexes: M^pro 3.0 μM
[4] = tested on: human leukocyte elastase (HLE); set-up: method as in doi:10.1016/S0960-894X(01)80940-9; conditions: cited from earlier work
[5] = SPE-MS, M^pro 0.05 μM, substrate 2.0 μM, n = 3, mean ± SD, freshly prepared DMSO stocks for 8
[6] = SPE-MS, M^pro 0.05 μM, substrate 2.0 μM, n = 3, mean ± SD, freshly prepared DMSO stocks for 8, read-out: IC50
[7] = literature value given in Table 1
[8] = IC50, SPE-MS, M^pro 0.05 μM, substrate 2.0 μM, n = 3, mean ± SD, freshly prepared DMSO stocks for 8

In the case of `CO[C@@]1(NC(=O)COc2ccccc2)C(=O)N2[C@@H](C(=O)OCc3ccccc3)C(C)(C)S[C@@H]21` [compound 8], the IC50 [1, 5] is reported as “no inhibition in the tested concentration range”, the IC50 [1, 6] is reported as over 50 µM and the IC50 ([1]; additional replicates using premade DMSO stock solutions, read-out: IC50) is reported as about 5 µM.

Compound `CO[C@@]1(NC(=O)Cc2ccccc2)C(=O)N2[C@@H](C(=O)OCc3ccccc3)C(C)(C)S[C@@H]21` [compound 25] has an IC50 [1, 6] of 11 ± 6 µM.

`CC1(C)C(C(=O)OCc2ccccc2)N2C(=O)C(NC(=O)Cc3ccccc3)C2[S+]1[O-]` (stereo not shown) [compound 21] showed an IC50 [1, 6] of over 50 µM.

In the case of `CC1(C)[C@H](C(=O)OCc2ccccc2)N2C(=O)[C@@H](NC(=O)COc3ccccc3)[C@H]2S1(=O)=O` [compound 1, penicillin V sulfone benzyl ester], the IC50 [2, 7] is listed as about 6.6 µM and the IC50 [1, 6] is listed as 2.9 ± 0.4 µM.

In the case of `CO[C@@]1(NC(=O)Cc2ccccc2)C(=O)N2[C@@H](C(=O)OCc3ccccc3)C(C)(C)[S@@+]([O-])[C@@H]21` [compound 3, C6-methoxy (R)-sulfoxide penicillin G benzyl ester], the IC50 [1, 6] is reported as ~0.8 µM and 0.8 µM, the “increase in M^pro inhibition potency compared to (S)-sulfoxide 22” value [1] is reported as about 9 fold and the “mass shift of concentration-dependent M^pro adduct” value [3] is reported as “+32 Da”. The “covalent reaction with / modification of M^pro” value [3] was “in no case were substantial amounts of species corresponding to covalent modification observed” and the “species with mass shifts corresponding to potential acyl–enzyme complexes” value [3] was “low levels”.

`CC1(C)[C@H](C(=O)OCc2ccccc2)N2C(=O)[C@](NC(=O)COc3ccccc3)(OCc3ccccc3)[C@H]2S1(=O)=O` [C00008] showed an IC50 [1, 6] of 8.3 ± 2.6 µM.

Work on `CO[C@@]1(NC(=O)Cc2ccccc2)C(=O)N2[C@@H](C(=O)OCc3ccccc3)C(C)(C)S(=O)(=O)[C@@H]21` [compound 20] yielded an IC50 [1, 6] of 11 ± 4 µM.

`CC1(C)[C@H](C(=O)OCc2ccccc2)N2C(=O)[C@@H](NC(=O)Cc3ccccc3)[C@H]2S1(=O)=O` [compound 19] gave an IC50 [1, 6] of over 50 µM.

Work on `CO[C@@]1(NC(=O)Cc2ccccc2)C(=O)N2[C@@H](C(=O)O)C(C)(C)S[C@@H]21` [compound 24, C6-methoxypenicillin G acid] yielded an IC50 ([1]; moderate inhibition potency observed in some cases (variable values, possible instability in DMSO), read-out: IC50) of 15 ± 8 µM.

In the case of `CC1(C)C(C(=O)OCc2ccccc2)N2C(=O)C(OCc3ccccc3)C2S1(=O)=O` (stereo not shown) [27f], the “inhibition of HLE” value [4] is given as “covalent inhibitors” and the IC50 [1, 6] is given as 35 ± 2 µM.

In the case of `CC(C)(C)O[C@H]1C(=O)N2[C@@H]1SC(C)(C)[C@@H]2C(=O)OCc1ccccc1` [26d], the IC50 [1, 6] is reported as 39 ± 9 µM.

With `CC1(C)S[C@H]2N(C(=O)[C@]2(NC(=O)COc2ccccc2)OCc2ccccc2)[C@H]1C(=O)OCc1ccccc1` [16c] the IC50 [1, 5] was “inactive” and the IC50 [1, 6] was over 50 µM.

With `CO[C@H]1C(=O)N2[C@@H]1SC(C)(C)[C@@H]2C(=O)OCc1ccccc1` [26a] the IC50 [1, 6] was 1.2 ± 0.1 µM and the “covalent reaction with / modification of M^pro” value [3] was “in no case were substantial amounts of species corresponding to covalent modification observed; also recorded: did not evidence covalent modification”.

Compound `CC1(C)C(C(=O)OCc2ccccc2)N2C(=O)C(Oc3ccccc3)C2S1(=O)=O` (stereo not shown) [27e] has an IC50 [1, 6] of over 50 µM.

In the case of `CO[C@@]1(NC(=O)COc2ccccc2)C(=O)N2[C@@H](C(=O)OCc3ccccc3)C(C)(C)S(=O)(=O)[C@@H]21` [compound 9], the IC50 [1, 5] is reported as “inactive”, the IC50 [1, 6] is reported as over 50 µM and the “covalent reaction with / modification of M^pro” value [3] is reported as “in no case were substantial amounts of species corresponding to covalent modification observed”.

Compound `CC1(C)[C@H](C(=O)OCc2ccccc2)N2C(=O)[C@@H](NC(=O)Cc3ccccc3)[C@H]2[S@+]1[O-]` [compound 23] has an IC50 [1, 6] of over 50 µM.

For `CO[C@H]1C(=O)N2[C@@H](C(=O)OCc3ccccc3)C(C)(C)S(=O)(=O)[C@H]12` [27a], the IC50 [1, 8] was 7.7 ± 4.9 µM and the “covalent reaction with / modification of M^pro” value [3] was “in no case were substantial amounts of species corresponding to covalent modification observed; also recorded: did not evidence covalent modification”.

`CC1(C)S[C@@H]2[C@H](NC(=O)Cc3ccccc3)C(=O)N2[C@H]1C(=O)OCc1ccccc1` [compound 18] gave an IC50 [1, 6] of over 50 µM.

Work on `CCO[C@@]1(NC(=O)COc2ccccc2)C(=O)N2[C@@H](C(=O)OCc3ccccc3)C(C)(C)S(=O)(=O)[C@@H]21` [10a] yielded an IC50 [1, 6] of 5.8 ± 1.9 µM.

In the case of `COC1(NC(=O)Cc2ccccc2)C(=O)N2C1[S+]([O-])C(C)(C)C2C(=O)OCc1ccc([N+](=O)[O-])cc1` (stereo not shown) [compound 2], the IC50 ([2]; literature value in Table 2) is listed as about 3.5 µM, the IC50 [1, 6] is listed as 0.5 ± 0.1 µM and the “increase in M^pro inhibition potency compared to (S)-sulfoxide 22” value [1] is listed as about 9 fold. The “mass shift of M^pro adduct” value ([3]; 5 : 1 inhibitor : M^pro, after 45 min, low levels) was “+32 Da”, the “mass shift of M^pro adduct” value ([3]; 5 : 1 inhibitor : M^pro, formed within 15 min, increasing intensity) was “+498 Da” and the “mass shift of M^pro adduct” value ([3]; 5 : 1 inhibitor : M^pro, t = 0 min / initial, weak intensity) was “+515 Da”. For the same compound, the “mass shift of M^pro adduct” value ([3]; 10:1 inhibitor : M^pro, after 45 min, low intensity) was “+32 Da”, the “mass shift of M^pro adduct” value ([3]; 10:1 inhibitor : M^pro, increasing intensity over 45 min) was “+498 Da” and the “mass shift of M^pro adduct” value ([3]; 10:1 inhibitor : M^pro, initial formation) was “+515 Da”. For the same compound, the “mass shift of concentration-dependent M^pro adduct” value [3] was “+32 Da”, the “covalent reaction with / modification of M^pro” value [3] was “in no case were substantial amounts of species corresponding to covalent modification observed” and the “species with mass shifts corresponding to potential acyl–enzyme complexes” value [3] was “low levels”.

For `CC1(C)S[C@@H]2[C@H](NC(=O)Cc3ccccc3)C(=O)N2[C@H]1C(=O)O` [C00011, reference compound], the IC50 ([2]; literature value in Table 2) is listed as over 50 µM and the IC50 [1, 8] is listed as over 50 µM.

For `COC1(NC(=O)COc2ccccc2)C(=O)N2C1[S+]([O-])C(C)(C)C2C(=O)OCc1ccccc1` (stereo not shown) [compound 7], the IC50 [1, 6] was ~2.3 µM and 2.3 µM and the “covalent reaction with / modification of M^pro” value [3] was “in no case were substantial amounts of species corresponding to covalent modification observed; also recorded: low levels of reaction”.

Work on `CC(C)O[C@H]1C(=O)N2[C@@H](C(=O)OCc3ccccc3)C(C)(C)S(=O)(=O)[C@H]12` [27c] yielded an IC50 [1, 6] of 19 ± 14 µM.

For `CO[C@@]1(NC(=O)Cc2ccccc2)C(=O)N2[C@@H](C(=O)OCc3ccccc3)C(C)(C)[S+]([O-])[C@@H]21` (stereo partly shown) [compound 22], the IC50 [1, 6] was ~7.3 µM and 7.3 µM and the “covalent reaction with / modification of M^pro” value [3] was “no evidence for covalent M^pro modification”.

`CC1(C)[C@H](C(=O)OCc2ccccc2)N2C(=O)[C@](NC(=O)COc3ccccc3)(O[C@@H]3CCNC3=O)[C@H]2S1(=O)=O` [C00006] showed an IC50 [1, 6] of 5.3 ± 1.6 µM.

With `CCO[C@H]1C(=O)N2[C@@H]1SC(C)(C)[C@@H]2C(=O)OCc1ccccc1` [26b] the IC50 [1, 6] was 0.8 ± 0.1 µM.

For `CCO[C@H]1C(=O)N2[C@@H](C(=O)OCc3ccccc3)C(C)(C)S(=O)(=O)[C@H]12` [27b], the “inhibition of HLE” value [4] is given as “covalent inhibitors” and the IC50 [1, 6] is given as 44 ± 4 µM.

For `CC1(C)C(C(=O)OCc2ccccc2)N2C(=O)C(NC(=O)COc3ccccc3)C2[S+]1[O-]` (stereo not shown) [compound 6], the IC50 [2, 7] is given as about 23 µM and the IC50 [1, 6] is given as 6.3 ± 1 µM.

`CC1(C)SC2C(Oc3ccccc3)C(=O)N2C1C(=O)OCc1ccccc1` (stereo not shown) [26e] gave an IC50 [1, 6] of over 50 µM.

`CC(C)O[C@H]1C(=O)N2[C@@H]1SC(C)(C)[C@@H]2C(=O)OCc1ccccc1` [26c] showed an IC50 [1, 6] of 47 ± 13 µM.

In the case of `CC1(C)S[C@@H]2[C@H](NC(=O)COc3ccccc3)C(=O)N2[C@H]1C(=O)OCc1ccccc1` [compound 5], the IC50 [2, 7] is listed as over 50 µM, the IC50 [1, 8] is listed as over 50 µM and the IC50 [1, 5] is listed as “no inhibition in the tested concentration range”.

With `CC1(C)SC2C(OCc3ccccc3)C(=O)N2C1C(=O)OCc1ccccc1` (stereo not shown) [26f] the IC50 [1, 6] was 7.3 ± 1.4 µM.

Compound `CC(C)(C)O[C@H]1C(=O)N2[C@@H](C(=O)OCc3ccccc3)C(C)(C)S(=O)(=O)[C@H]12` [27d] has an IC50 [1, 6] of 21 ± 3 µM.
